Experimental data published in ChEMBL document CHEMBL1201862, “PubChem BioAssay data set” (2004).
Activity calls are given as the source filed them.

Tests used:
H4 = assay: Luminescence Cell-Based Dose Response HTS to Identify Activators of 5'UTR Stem-Loop Driven Prion Protein mRNA Translation in H4 Neuroglioblastoma Cells. [Related pubchem assays: 1829 (Project Summary), 1814 (Primary HTS)]; assay type: functional; details: Homo sapiens
[1] = Luminescence Cell-Based Dose Response HTS to Identify Activators of 5'UTR Stem-Loop Driven Prion Protein mRNA Translation in H4-C Neuroglioblastoma Cells. [Related pubchem assays: 1829 (Project Summary), 1814 (Primary HTS)]; assay type: functional
[2] = Luminescence Cell-Based Dose Response HTS to Identify Activators of Luciferase Translation or Activity in H4-C Neuroglioblastoma Cells. [Related pubchem assays: 1829 (Project Summary), 1814 (Primary HTS)]; assay type: functional
[3] = Luminescence Cell-Based Dose Retest to Confirm Activators of 5'UTR Stem-Loop Driven Alpha-Synuclein mRNA Translation in H4 Neuroglioblastoma Cells. [Related pubchem assays (depositor defined):AID1813, AID1829]; assay type: functional
[4] = Luminescence Cell-Based Dose Confirmation HTS to Identify Activators of 5'UTR Stem-Loop Driven Alpha-Synuclein mRNA Translation in H4 Neuroglioblastoma Cells. [Related pubchem assays: 1829 (Project Summary), 1814 (Primary HTS)]; assay type: functional
[5] = Luminescence Cell-Based Dose Response HTS to Identify Activators of Luciferase Translation or Activity in H4 […] Cells. [Related pubchem assays: 1829 (Project Summary), 1814 (Primary HTS)]; assay type: functional
[6] = molecular target: Lysosomal acid glucosylceramidase (Homo sapiens, UniProt P04062); assay: Dose response cell-based high throughput screening assay to identify enhancers of beta-glucosidase activity. [Related pubchem assays: 784 ]; assay type: functional
Chain of Lysosomal acid glucosylceramidase (P04062 whole entry): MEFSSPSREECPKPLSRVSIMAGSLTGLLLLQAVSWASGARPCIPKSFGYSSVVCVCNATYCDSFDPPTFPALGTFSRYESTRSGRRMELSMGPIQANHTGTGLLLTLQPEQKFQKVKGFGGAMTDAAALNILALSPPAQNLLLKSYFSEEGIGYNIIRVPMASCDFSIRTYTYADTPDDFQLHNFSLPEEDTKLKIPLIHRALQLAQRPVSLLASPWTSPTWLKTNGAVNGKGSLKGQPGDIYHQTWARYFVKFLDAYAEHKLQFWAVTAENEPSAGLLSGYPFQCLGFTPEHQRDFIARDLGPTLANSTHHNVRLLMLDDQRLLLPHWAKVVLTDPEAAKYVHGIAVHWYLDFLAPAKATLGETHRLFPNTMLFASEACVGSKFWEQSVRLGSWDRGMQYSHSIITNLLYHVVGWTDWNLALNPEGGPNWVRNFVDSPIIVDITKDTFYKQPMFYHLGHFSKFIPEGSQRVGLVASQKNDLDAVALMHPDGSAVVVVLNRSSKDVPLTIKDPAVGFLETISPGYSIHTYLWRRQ

Vero = assay: cells; assay type: functional; details: Chlorocebus sabaeus
[7] = molecular target: T1, Ubiquitin-conjugating enzyme E2 N (Homo sapiens, UniProt P61088); assay type: functional
T1 sequence (P61088 whole entry): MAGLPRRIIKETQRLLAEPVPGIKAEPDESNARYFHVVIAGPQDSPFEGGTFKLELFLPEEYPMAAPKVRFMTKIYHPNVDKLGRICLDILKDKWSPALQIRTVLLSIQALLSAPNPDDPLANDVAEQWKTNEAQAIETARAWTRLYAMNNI

[8] = growth suppression of PTEN-null colon cells, dose response, cell-based, HCT116 PTEN knockout (AID 1047); assay type: functional;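 also: HCT116 colon tumor cells with PTEN knocked out; cells exposed to compound for 60 hours before readout; potency for loss of cell viability measured by luminescence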
Protein Rev = Protein Rev (Human immunodeficiency virus type 1 group M subtype B (isolate HXB2)(HIV-1), UniProt P04618); assay: inhibitors of Rev binding to RRE RNA, dose response, biochemical, fluorescence polarization, HIV-1 (AID 434976); set-up: species or system Human immunodeficiency virus 1
Chain of Protein Rev (P04618 whole entry): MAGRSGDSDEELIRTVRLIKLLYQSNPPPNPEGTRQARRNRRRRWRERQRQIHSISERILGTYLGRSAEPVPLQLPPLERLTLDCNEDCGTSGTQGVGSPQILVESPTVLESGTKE

[9] = growth suppression of beta-catenin-knockout colon cells, dose response, cell-based, HCT116, human colon tumor (AID 1045); assay type: functional;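 also: HCT116 colon tumor cells with beta catenin knocked out; cells exposed to compound for 60 hours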
[10] = molecular target: Female germline-specific tumor suppressor gld-1 (Caenorhabditis elegans, UniProt Q17339); assay: inhibitors of GLD-1 binding to TGE RNA, dose response, biochemical, fluorescence polarization, C. elegans (AID 2802);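 also: fluorescence polarization of labeled TGE RNA bound by purified gld-1 protein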
Chain of Female germline-specific tumor suppressor gld-1 (Q17339 whole entry): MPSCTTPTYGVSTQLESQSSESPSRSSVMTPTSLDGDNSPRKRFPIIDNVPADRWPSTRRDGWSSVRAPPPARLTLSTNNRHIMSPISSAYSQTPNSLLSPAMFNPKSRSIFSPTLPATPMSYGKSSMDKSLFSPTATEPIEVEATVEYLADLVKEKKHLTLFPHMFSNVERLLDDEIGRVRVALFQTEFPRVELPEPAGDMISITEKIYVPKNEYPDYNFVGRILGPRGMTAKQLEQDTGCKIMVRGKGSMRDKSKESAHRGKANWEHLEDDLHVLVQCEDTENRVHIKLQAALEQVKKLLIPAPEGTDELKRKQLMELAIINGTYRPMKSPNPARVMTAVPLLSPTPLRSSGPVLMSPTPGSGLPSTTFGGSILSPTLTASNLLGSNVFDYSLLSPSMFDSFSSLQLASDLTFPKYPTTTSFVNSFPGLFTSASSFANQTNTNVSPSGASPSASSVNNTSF

Bcl-2-related protein A1 = molecular target: T2, Bcl-2-related protein A1 (Mus musculus, UniProt Q07440); assay type: functional;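 also: confirmatory dose–response counterscreen on Bfl-1, used to check hits from a UBC13 polyubiquitin inhibitor campaign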
T2 sequence (Q07440 whole entry): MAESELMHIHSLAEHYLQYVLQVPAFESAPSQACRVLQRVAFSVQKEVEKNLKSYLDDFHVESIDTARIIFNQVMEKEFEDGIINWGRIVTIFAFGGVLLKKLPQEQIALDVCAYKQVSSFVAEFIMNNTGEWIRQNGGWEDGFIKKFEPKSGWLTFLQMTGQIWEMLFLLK

[11] = molecular target: T1, Ubiquitin-conjugating enzyme E2 N; assay type: functional; remark: listed apart in the source
BJ [12] = assay: cytotoxicity toward BJ-TERT fibroblasts, dose response, cell-based, RAS-independent, luminescence (AID 1933); assay type: functional; details: Homo sapiens
BJ [13] = assay: cells; assay type: functional, cell-based; details: Homo sapiens
[14] = cytotoxicity toward DRD oncogenic fibroblasts, dose response, cell-based, non-viral oncogenic, luminescence (AID 1934); assay type: functional; details: Homo sapiens
BJ [15] = assay: cytotoxicity toward BJ-TERT-LT-ST fibroblasts, dose response, cell-based, RAS-independent, luminescence (AID 1935); assay type: functional; details: Homo sapiens;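 also: BJ fibroblasts immortalized with TERT plus LT and ST oncogenes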
[16] = molecular target: Envelope glycoprotein gp160 (Human immunodeficiency virus 1, UniProt Q6QLK5); assay: inhibitors of HIV fusion peptide binding, primary screen, biochemical, uHTS, fluorescence dequenching (AID 1986)
Chain of Envelope glycoprotein gp160 (Q6QLK5 whole entry, the tested form may be a part): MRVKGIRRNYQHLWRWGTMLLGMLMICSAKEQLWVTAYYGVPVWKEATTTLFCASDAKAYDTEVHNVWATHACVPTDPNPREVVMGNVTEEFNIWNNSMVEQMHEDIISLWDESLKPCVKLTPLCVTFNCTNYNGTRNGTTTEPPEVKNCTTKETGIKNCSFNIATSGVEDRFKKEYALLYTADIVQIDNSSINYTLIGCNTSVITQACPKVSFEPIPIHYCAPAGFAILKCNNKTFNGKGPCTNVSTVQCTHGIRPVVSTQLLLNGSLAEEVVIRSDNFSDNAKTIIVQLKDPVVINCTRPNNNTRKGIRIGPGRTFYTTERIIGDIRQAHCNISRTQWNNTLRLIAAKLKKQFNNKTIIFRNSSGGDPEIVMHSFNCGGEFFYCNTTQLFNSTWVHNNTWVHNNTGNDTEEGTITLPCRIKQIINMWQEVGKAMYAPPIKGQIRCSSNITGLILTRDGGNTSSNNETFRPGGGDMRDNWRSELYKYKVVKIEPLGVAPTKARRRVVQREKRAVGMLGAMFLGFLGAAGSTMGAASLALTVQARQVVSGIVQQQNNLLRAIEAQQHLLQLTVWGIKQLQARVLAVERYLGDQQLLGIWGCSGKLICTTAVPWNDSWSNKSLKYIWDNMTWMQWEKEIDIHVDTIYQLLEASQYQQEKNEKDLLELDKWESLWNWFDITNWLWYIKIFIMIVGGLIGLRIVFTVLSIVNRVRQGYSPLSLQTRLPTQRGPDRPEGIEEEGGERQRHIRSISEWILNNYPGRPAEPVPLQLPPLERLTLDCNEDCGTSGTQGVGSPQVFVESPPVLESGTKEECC

Staphylococcus aureus = assay: Inhibitors of Bacterial Quorum Sensing Structure Activity Relationship (SAR) Analysis: Dose Response Assay. [Related pubchem assays: 700, 527 ]; assay type: functional, organism-based
Interleukin-8 = molecular target: T3, Interleukin-8 (Homo sapiens, UniProt P10145); assay: SAR analysis of tumor necrosis factor alpha (TNF-alpha) induced IL-8 secretion in MCF-7/NOD1 cells. [Related pubchem assays (depositor defined):AID1575, AID2250, AID2260]; assay type: functional, cell-based
T3 sequence (P10145 whole entry): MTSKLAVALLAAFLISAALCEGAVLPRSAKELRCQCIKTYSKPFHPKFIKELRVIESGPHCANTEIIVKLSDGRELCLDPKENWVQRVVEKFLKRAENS

Tumor necrosis factor = Tumor necrosis factor (Homo sapiens, UniProt P01375); assay: TNFa-triggered NF-kB activation inhibitors, SAR follow-up, cell-based, revised (AID 2337); assay type: functional
Chain of Tumor necrosis factor (P01375 whole entry): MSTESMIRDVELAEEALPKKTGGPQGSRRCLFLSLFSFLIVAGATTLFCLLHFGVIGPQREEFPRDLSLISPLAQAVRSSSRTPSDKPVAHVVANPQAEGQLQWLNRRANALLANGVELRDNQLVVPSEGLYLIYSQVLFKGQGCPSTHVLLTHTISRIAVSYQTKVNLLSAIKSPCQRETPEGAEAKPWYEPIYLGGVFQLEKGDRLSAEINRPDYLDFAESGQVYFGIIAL

HEK293 = assay: cells; details: Homo sapiens;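 also: cells exposed to compound for 14 hours overnight before viability readout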
Trypsin = Trypsin (Sus scrofa, UniProt P00761); assay: porcine trypsin inhibitors, dose response, selectivity assay for Rce1 protease inhibitor project, biochemical, quenched peptide fluorescence, cherry-pick (AID 488789)
Chain of Trypsin (P00761 whole entry): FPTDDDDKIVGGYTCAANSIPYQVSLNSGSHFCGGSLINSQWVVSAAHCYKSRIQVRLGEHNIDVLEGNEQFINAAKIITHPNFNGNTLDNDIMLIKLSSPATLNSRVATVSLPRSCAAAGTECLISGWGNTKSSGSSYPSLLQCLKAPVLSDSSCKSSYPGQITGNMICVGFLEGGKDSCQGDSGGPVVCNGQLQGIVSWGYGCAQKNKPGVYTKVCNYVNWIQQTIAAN

Cytochrome P450 3A4 = Cytochrome P450 3A4 (Homo sapiens, UniProt P08684); details: Potency;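 also: confirmatory qHTS run detecting inhibitors and substrates of CYP3A4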
Chain of Cytochrome P450 3A4 (P08684 whole entry): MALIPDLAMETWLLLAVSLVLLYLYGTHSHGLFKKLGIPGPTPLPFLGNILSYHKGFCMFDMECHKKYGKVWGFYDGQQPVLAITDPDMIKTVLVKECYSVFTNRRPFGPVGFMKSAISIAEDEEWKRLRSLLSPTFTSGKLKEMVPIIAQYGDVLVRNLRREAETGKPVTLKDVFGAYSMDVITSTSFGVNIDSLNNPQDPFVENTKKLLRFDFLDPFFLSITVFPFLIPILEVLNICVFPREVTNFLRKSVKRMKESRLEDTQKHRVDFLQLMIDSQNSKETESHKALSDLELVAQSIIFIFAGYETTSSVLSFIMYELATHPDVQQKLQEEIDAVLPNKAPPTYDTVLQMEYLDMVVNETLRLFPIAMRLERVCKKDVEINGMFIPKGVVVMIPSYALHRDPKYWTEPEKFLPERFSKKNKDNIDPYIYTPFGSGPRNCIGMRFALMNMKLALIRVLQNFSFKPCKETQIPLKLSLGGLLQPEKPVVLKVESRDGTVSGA

Cytochrome P450 2C9 = Cytochrome P450 2C9 (Homo sapiens, UniProt P11712); details: Potency
Chain of Cytochrome P450 2C9 (P11712 whole entry): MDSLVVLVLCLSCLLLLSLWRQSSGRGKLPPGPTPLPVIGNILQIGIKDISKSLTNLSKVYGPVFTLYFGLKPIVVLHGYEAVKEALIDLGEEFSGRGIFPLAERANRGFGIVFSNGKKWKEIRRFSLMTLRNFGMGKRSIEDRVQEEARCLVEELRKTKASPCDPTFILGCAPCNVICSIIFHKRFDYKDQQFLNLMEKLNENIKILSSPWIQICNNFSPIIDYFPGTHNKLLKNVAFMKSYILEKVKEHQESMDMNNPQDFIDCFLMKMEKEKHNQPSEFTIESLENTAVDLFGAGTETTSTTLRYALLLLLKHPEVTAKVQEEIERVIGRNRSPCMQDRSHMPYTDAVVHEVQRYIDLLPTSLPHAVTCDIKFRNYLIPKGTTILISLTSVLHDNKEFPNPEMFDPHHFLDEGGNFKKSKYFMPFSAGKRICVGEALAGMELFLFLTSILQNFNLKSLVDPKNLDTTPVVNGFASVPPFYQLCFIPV

Cc1nn(C)c(Sc2ccccn2)c1[N+](=O)[O-]
EC50 (H4): > 120 µM (not active) | EC50 [1]: > 195 µM (not active) | EC50 [2]: > 195 µM (not active) | EC50 [3]: > 195 µM (inactive) | EC50 [4]: 1.7 µM (active) | EC50 [5]: 88.4 µM (active)

CCC(Sc1nc(C)cc(O)n1)C(=O)Nc1nc2c(s1)CCCC2 (configuration not stated)
EC50 [6]: > 50 µM (not active)

CN1CC2=Cc3ccccc3OC23Oc2ccccc2C=C3C1
CC50 (Vero): 18.9 µM (active) | IC50 [7]: 2.55 µM (active) | EC50 [8]: 25 µM (active) | IC50 (Protein Rev): > 75.4 µM (not active) | EC50 [9]: 23 µM (active) | IC50 [10]: > 59.6 µM (inactive) | IC50 (Bcl-2-related protein A1): > 20 µM (inactive) | IC50 [11]: 3.5 µM (active)

O=C(O)CN1C(=O)/C(=C\c2cn(-c3ccccc3)nc2-c2ccccc2)SC1=S
EC50 (BJ [12]): 31.1 µM (active) | EC50 (BJ [13]): > 150 µM (not active) | EC50 [14]: 41.4 µM (active) | EC50 (BJ [15]): > 150 µM (not active) | IC50 [16]: > 99 µM (inactive)

CSCCC(NC(=O)c1ccccc1)C(=O)OCC(=O)Nc1sc2c(c1C#N)CCCC2 (configuration not stated)
IC50 (Staphylococcus aureus): 0.44 µM (active)

Nc1nc2ccccc2n1S(=O)(=O)c1ccc([N+](=O)[O-])cc1
IC50 (Interleukin-8): > 5 µM (inactive) | IC50 (Tumor necrosis factor): > 20 µM (inactive) | IC50 (HEK293): > 20 µM (inactive)

COc1cccc(-c2ccc(-c3noc(-c4ccccc4F)n3)c(OC)n2)c1
AC50 (Trypsin): 14.3 µM (active)

CC1(C)CCC[C@@]2(C)[C@@H]1CC[C@]1(C)OC(=O)C[C@@H]21
AC50 (Cytochrome P450 3A4): 20 µM (inconclusive) | AC50 (Cytochrome P450 2C9): 39.8 µM (inconclusive)
